Paper PMC7600266, “Caerin 1 Antimicrobial Peptides that Inhibit HIV and Neisseria May Spare Protective Lactobacilli” (Antibiotics, 2020)
Entries after “also recorded” stand apart in the source; their conditions may differ.

Assays:
HIV = settings: cited from earlier work; for inhibition of HIV infection, result in words: percent HIV infection of target T cells, 6.25–25 µM, replotted from a previous publication
Description: Its sequence is shown here for comparison with the synthetically modified caerin 1.1 peptide. Amino acid modifications to the caerin 1.1 and to the caerin 1.9 peptides are shown in bold type with gray shading. […] Thus, we first tested these four peptides for effects on growth of L. rhamnosus. […] To evaluate both parameters at once, we plotted the patterns of inhibition of HIV infection from a previous publication on the same axes as the new data for effects on L. rhamnosus and L. crispatus growth. […] Among all of the ...

[1] = test system: Lactobacillus rhamnosus, ATCC 39595; assay: Bacterial growth assay, Lactobacillus rhamnosus; assay type: cell-based; settings: for reduction of L. rhamnosus growth: vs no-peptide control; for inhibition of L. rhamnosus growth at highest concentration: 50 µM peptide (50 µm [sic]), one-way ANOVA with Tukey's post hoc test; for inhibition of L. rhamnosus growth, result in words: peptide tested at 0.4 or 0.8 to 50 µM; for viability as measured by 24-h growth of L. rhamnosus: range of concentrations 0.4–25 µM
Experimental: (§1) Bacterial strains were obtained from the American Type Culture Collection (Lactobacillus crispatus, ATCC® 33197™; Lactobacillus rhamnosus, ATCC® 39595™; Neisseria lactamica (ATCC® 23970™). Growth assays were conducted to determine the concentrations at which each peptide inhibited the growth of the three bacterial species. The Lactobacillus bacteria were grown in de Man, Rogosa, and Sharpe (MRS) broth and the N. lactamica in Fastidious Broth. Bacterial cells were cultured in broth for 24 to 48 h until they reached an optical density of about 0.1 O.D. units at 630 nm and diluted to achieve a concentration of 10^6 cells per mL. The peptides were serially diluted with sterile water to reach peptide concentrations of 0.4, 0.8, 1.6, 3.12, 6.25, 12.5, 25, and 50 µM final concentrations in culture. The bacterial cells at 10^6 cells/mL and the peptides were plated in triplicate in a 96-well plate. Included was a negative control for growth (three to five replicates of bacteria plus penicillin-streptomycin), a positive control for growth (three to five replicates of bacteria plus water), and a blank (three to five replicates of broth plus water) to ensure the broth was not contaminated. Bacterial cells were plated in 50 µL of broth, and each dilution of peptides was added in a volume of 50 µL to achieve a total volume of 100 µL. For the positive control, 50 µL of sterile water was added to 50 µL of cells in broth. For the negative control, 50 µL of the antibiotic solution was added to 50 µL of cells in broth. The O.D. of each well was recorded before and after a 24-h incubation period at 37 °C using a Biotek ELx808 reader (Biotek, Winooski, VT, USA). Data for representative experiments are expressed as average O.D. ± standard error of the mean at each peptide concentration. To express data from replicate experiments, the average as percent growth in comparison with the positive (no peptide) control set at 100% for the range of concentrations from 6.25–50 µM is shown. […] A p-value of less than 0.05 was considered significant.

[2] = test system: T lymphocytes or endocervical cell lines; settings: cited from earlier work
bacteria = settings: cited from earlier work; for antibacterial activity, previously shown: control peptides, for caerin 1.3 against most of the bacteria tested
Description: Its sequence is shown here for comparison with the synthetically modified caerin 1.1 peptide. Amino acid modifications to the caerin 1.1 and to the caerin 1.9 peptides are shown in bold type with gray shading. All of the peptides studied have many simil ...

[3] = test system: Lactobacillus crispatus, ATCC 33197; assay: Bacterial growth assay, Lactobacillus crispatus; assay type: cell-based; settings: 24 h, 37 °C, O.D. 630 nm; for inhibition of L. crispatus growth at highest concentration: 50 µM peptide, MRS broth; for inhibition of L. crispatus growth at lower concentrations: concentrations of 25 µM or less; for effect on L. crispatus growth, result in words: peptide tested at 0.4 or 0.8 to 50 µM
Experimental: as §1

[4] = test system: Neisseria lactamica (ATCC 23970); assay: Bacterial growth assay, Neisseria lactamica; assay type: cell-based; settings: tested twice; 0.8 to 50 µM; 24 h, 37 °C
Experimental: Bacterial strains were obtained from the American Type Culture Collection (Lactobacillus crispatus, ATCC® 33197™; Lactobacillus rhamnosus, ATCC® 39595™; Neisseria lactamica (ATCC® 23970™). Growth assays were conducted to determine the concentrations at which each peptide inhibited the growth of the three bacterial species. The Lactobacillus bacteria were grown in de Man, Rogosa, and Sharpe (MRS) broth and the N. lactamica in Fastidious Broth. Bacterial cells were cultured in broth for 24 to 48 h until they reached an optical density of about 0.1 O.D. units at 630 nm and diluted to achieve a concentration of 10^6 cells per mL. The peptides were serially diluted with sterile water to reach peptide concentrations of 0.4, 0.8, 1.6, 3.12, 6.25, 12.5, 25, and 50 µM final concentrations in culture. The bacterial cells at 10^6 cells/mL and the peptides were plated in triplicate in a 96-well plate. […] The O.D. of each well was recorded before and after a 24-h incubation period at 37 °C using a Biotek ELx808 reader (Biotek, Winooski, VT, USA). Data for representative experiments are expressed as average O.D. ± standard error of the mean at each peptide concentration. […]

[5] = 25 µM peptide, MRS broth, 24 h, 37 °C, O.D. 630 nm

Substance	inhibition of HIV (transmission), previous studies (HIV)	inhibition of HIV infection, result in words (HIV)	reduction of L. rhamnosus growth [1, 5]	inhibition of L. rhamnosus growth at highest concentration ([1]; 24 h, 37 °C, O.D. 630 nm)	inhibition of L. rhamnosus growth, result in words ([1]; 24 h, 37 °C, O.D. 630 nm)	viability as measured by 24-h growth of L. rhamnosus [1]	toxicity to T lymphocytes or endocervical cell lines [2]	antibacterial spectrum (bacteria)	inhibition of L. crispatus growth at highest concentration [3]	inhibition of L. crispatus growth at lower concentrations [3]	effect on L. crispatus growth, result in words [3]	average bacterial growth of L. rhamnosus ([1]; 25 µM peptide, percent growth vs no-peptide control set at 100%, 10^6 cells/mL, MRS broth, 24 h, 37 °C, O.D. 630 nm, average of replicate experiments)	inhibition of N. lactamica growth, comparison in words [4]	antibacterial activity, previously shown (bacteria)
GLFGILGSVAKHVLPHVIPVVAEHL-NH2 [caerin 1.20, caerin 1 antimicrobial peptide, origin L. caerulea/L. splendida]	very effective inhibitors of HIV	slightly less effective in the inhibition of HIV	40–55%	significantly inhibited growth	slightly more inhibitory against L. rhamnosus than caerin 1.9	remained quite high	limited toxicity	wide-spectrum anti-bacterial agents						
GLFGVLGSIAKHLLPHVVPVIAEKL-NH2 [caerin 1.9 sm, synthetic analog of caerin 1.9 with a single amino acid change]		equal or greater inhibition of HIV infection than caerin 1.9			inhibited the growth of L. rhamnosus more than caerin 1.9; also recorded: inhibited growth to a greater extent than the previous four									
GLFGVLGSIAKHVLPHVVPVIAEKL-NH2 [caerin 1.9, caerin 1 antimicrobial peptide, origin L. chloris]	very effective inhibitors of HIV	best profile of inhibition of HIV		significantly inhibited growth	least apparent inhibition of growth of both tested lactobacilli	remained quite high	limited toxicity	wide-spectrum anti-bacterial agents	inhibitory	almost no inhibition	least apparent inhibition of growth of both tested lactobacilli	about 83%		
GLLGVLGSVAKHVLPHVVPVIAEHL-NH2 [caerin 1.2, caerin 1 antimicrobial peptide, origin L. caerulea]	very effective inhibitors of HIV	effective inhibitors of HIV infection	40–55%	significantly inhibited growth		remained quite high	limited toxicity	wide-spectrum anti-bacterial agents	inhibitory	almost no inhibition			less effective against N. lactamica than caerin 1.9 and caerin 1.10	
GLLSSLSSVAKHVLPHVVPVIAEHL-NH2 [caerin 1.4, caerin 1 antimicrobial peptide, origin L. caerulea, L. gilleni; control peptide]		inhibited HIV less than caerin 1.9			very limited inhibition of both species of lactobacilli; also recorded: almost no inhibition at any dose tested						largely unaffected; also recorded: very limited inhibition of both species of lactobacilli			reduced antibacterial activity
GLLSVLGSVAKHVLPHVVPVIAAAL-NH2 [caerin 1.1 mod 7, synthetically modified caerin 1.1 peptide]		equal or greater inhibition of HIV infection than caerin 1.9			inhibited the growth of L. rhamnosus more than caerin 1.9; also recorded: inhibited growth to a greater extent than the previous four									
GLLSVLGSVAKHVLPHVVPVIAEHL-NH2 [caerin 1.1, antimicrobial peptide from Litoria caerulea, reference compound]	less effective in the inhibition of HIV transmission than other caerin family peptides							wide-spectrum anti-bacterial agents						
GLLSVLGSVAKHVLPHVVPVIAEKL-NH2 [caerin 1.10, caerin 1 antimicrobial peptide, origin L. splendida]	very effective inhibitors of HIV	effective inhibitors of HIV infection	40–55%	significantly inhibited growth		remained quite high	limited toxicity	wide-spectrum anti-bacterial agents	no inhibition					
GLLSVLGSVAQHVLPHVVPVIAEHL-NH2 [caerin 1.3, caerin 1 antimicrobial peptide, origin L. caerulea; control peptide]		inhibited HIV less than caerin 1.9			very limited inhibition of both species of lactobacilli; also recorded: almost no inhibition at any dose tested						largely unaffected; also recorded: very limited inhibition of both species of lactobacilli			reduced antibacterial activity
